According to paper PMC11350758, “Development of Xanthoangelol-Derived Compounds with Membrane-Disrupting Effects against Gram-Positive Bacteria” (Antibiotics, 2024):
Values after ≈ are worked out from the molar mass of the structure shown. Where two headings read alike, the source gives them in different places. Each block holds one compound with its values, some of them ahead of it.

What was measured:
Type in all cases: cell-based
[1] = test system: Acinetobacter baumannii ATCC19606; assay: MIC, broth microdilution; settings: Acinetobacter baumannii, ATCC19606, read-out: MIC A. b. 19606
Description: (§1) All target derivatives were assessed for their in vitro antibacterial activities using a broth microdilution assay to test their minimum inhibitory concentrations (MICs) against six Gram-positive strains (S. aureus ATCC31007, S. aureus ATCC25923, S. aureus ATCC43300, E. faecalis ATCC29212, B. subtilis ATCC9372, and S. epidermidis ATCC12228) and four Gram-negative strains (A. baumannii ATCC19606, K. pneumonia ATCC10031, E. coli ATCC25922, and P. aeruginosa ATCC27853). These compounds were also evaluated for their hemolytic activities and membrane selectivity by determining their HC50 (the concentration required to lyse 50% of red blood cells) and SI (HC50/MICs) values, respectively, and vancomycin was used as the positive drug.
(§2) MICs of the derivatives were determined by the micro broth dilution method according to the American Clinical and Laboratory Standards Institute (CLSI) standards. Briefly, 2-fold serial dilutions of target compounds were prepared in 96-well plates containing TSB broth. An equal volume of bacterial suspension (10^6 CFU/mL) was then pipetted into each well, and the mixture was incubated at 37 °C for 24 h. […] All biological experiments were repeated three times.

[2] = test system: Bacillus subtilis ATCC9372, penicillin-susceptible strain; assay: MIC, broth microdilution; settings: Bacillus subtilis, ATCC9372, read-out: MIC B. s. 9372
Description: as §1, §2

[3] = test system: Enterococcus faecalis ATCC29212, vancomycin-susceptible strain; assay: MIC, broth microdilution; settings: Enterococcus faecalis, ATCC29212, read-out: MIC E. f. 29212
Description: as §1, §2

[4] = test system: Escherichia coli ATCC25922, penicillin-susceptible strain; assay: MIC, broth microdilution; settings: Escherichia coli, ATCC25922, read-out: MIC E. c. 25922
Description: as §1, §2

[5] = test system: Klebsiella pneumonia ATCC10031; assay: MIC, broth microdilution; settings: Klebsiella pneumoniae, ATCC10031, read-out: MIC K. p. 10031
Description: as §1, §2

[6] = test system: Pseudomonas aeruginosa ATCC27853; assay: MIC, broth microdilution; settings: Pseudomonas aeruginosa, ATCC27853, read-out: MIC P. a. 27853
Description: as §1, §2

[7] = test system: Staphylococcus aureus ATCC25923, erythromycin-susceptible strain; assay: MIC, broth microdilution; settings: Staphylococcus aureus, ATCC25923, read-out: MIC S. a. 25923
Description: as §1, §2

[8] = test system: Staphylococcus aureus ATCC31007, penicillin-resistant strain; assay: MIC, broth microdilution; settings: Staphylococcus aureus, ATCC31007, read-out: MIC S. a. 31007
Description: as §1, §2

[9] = test system: Staphylococcus epidermidis ATCC12228, erythromycin-susceptible strain; assay: MIC, broth microdilution; settings: Staphylococcus epidermidis, ATCC12228, read-out: MIC S. e. 12228
Description: as §1, §2

[10] = test system: Staphylococcus aureus ATCC43300, methicillin-resistant strain; assay: microbe, parasite or virus in culture; settings: for MIC: ATCC 43300 / MRSA, read-out: MIC S. a 43300
Description: as §1, §2

[11] = test system: Enterococcus faecalis ATCC51299, vancomycin-resistant strain; assay: MIC, broth microdilution; settings: Enterococcus faecalis, ATCC51299, read-out: MIC E. f. 51299
Description: as §2

[12] = test system: Enterococcus faecium ATCC51559, vancomycin-resistant strain; assay: MIC, broth microdilution; settings: Enterococcus faecium, ATCC51559, read-out: MIC E. f. 51559
Description: as §2

S. aureus ATCC4330 = assay: microbe, parasite or virus in culture; settings: control compounds of the ROS assay
Description: Due to the presence of various biological enzymes in plasma, natural AMPs are susceptible to enzymatic degradation upon entering the bloods, leading to a loss of their antimicrobial activity. To evaluate the plasma stability of active compound 9h, we conducted a stability assay by determining their MBC (minimum bactericidal concentration) values in plasma and different blood components. […] The observed initial increase in the MBC value, followed by remaining unchanged, could potentially be attributed to the initial binding of compound 9h with plasma proteins, causing a reduction in its activity. Once this binding became saturated, the bactericidal activity of the compound remained stable, further indicating the good stability of compound 9h in plasma.
MBCs of the compounds were tested. Furthermore, MBCs of compounds in 50% plasma, 50% serum, and 50% blood suspension were tested. The MBC value is defined as the concentration at which the colony count is less than 5 after 18 h of incubation at 37 °C. All biological experiments were repeated three times.

S. aureus ATCC43300 [13] = assay: ROS assay (DCFH-DA); settings: control compounds
Description: It is known that the disruption of bacterial cell membranes often causes the production of ROS in bacterial cells. The fluorescent probe DCFH-DA was used to monitor the level of intracellular ROS produced by S. aureus ATCC43300. DCFH-DA is initially non-fluorescent; however, it undergoes hydrolysis to DCFH upon entry into the cell. Subsequently, DCFH is converted to the fluorescent compound DCF when ROS are produced in the cells. […] The fluorescence intensity of 9h was about 8-fold higher than the PBS-treated group when the concentration of 9h increased 16 μg/mL.
Mid-log S. aureus ATCC43300 was collected and resuspended in PBS. Bacteria suspension (1.0 × 10^8 CFU/mL) was placed into a 96-well plate, and an equal volume of DCF-DA (10.0 μM) was mixed and incubated at 37 °C for 30 min. After incubation, the suspension was centrifuged (3500 rpm, 4 min), and the supernatant was removed and resuspended in PBS. […] The fluorescence intensity of each well was recorded by a microplate reader (Ex = 488 nm and Em = 530 nm). All biological experiments were repeated three times.

S. aureus ATCC43300 [14] = assay: DNA leakage study; settings: control compound
Description: The destruction of bacterial cell membranes usually causes the leakage of macromolecules, including DNA and proteins. To investigate the effect of the compound 9h on the leakage of cytoplasmic contents, we performed DNA and protein leakage assays against S. aureus ATCC43300. The degree of damage to the bacterial cell membrane could be reflected by the concentrations of DNA and protein. The non-membrane-targeted antibiotic ciprofloxacin, membrane-targeted peptide melittin, and PBS were used as controls. […] A similar result were also observed in the leakage of protein with S. aureus (Figure 8C).
Mid-log S. aureus ATCC43300 was collected and resuspended in PBS (1.0 × 10^8 CFU/mL). […] The concentration of the protein was determined according to the method of the BCA assay kit (Thermo Fisher Scientific, Waltham, MA, USA), and the concentration of DNA in the supernatant was tested by a micro-spectrophotometer. All biological experiments were repeated three times.

S. aureus ATCC43300 [15] = assay: Resistance development assay (serial passage); settings: at the 19th passage
Description: The rapid increase in bacterial resistance to antibiotics is a major challenge in clinical treatment, and in order to assess the drug resistance development for compound 9h, we performed a drug resistance assay against S. aureus ATCC43300. Norfloxacin was selected as the positive control. The S. aureus cells were incubated with sub-MIC (1/2 MIC) concentration of compound 9h and were serially passaged for a duration of 20 days.
Resistance was defined as a more than 4-fold increase in the tested compound in MIC when compared to the beginning value. Briefly, S. aureus ATCC43300 was cultured (37 °C, 200 rpm) in MHB broth for 5 h and diluted to 1 × 10^6 CFU/mL. Then, the bacteria were cultured with compound 9h at a sub-MIC concentration (1/2 MIC) for 18 h. The MICs were determined according to this method for consecutive 20 days. All biological experiments were repeated three times.

[16] = Staphylococcus aureus ATCC43300 (MRSA)

SMILES: CN[C@H](CC(C)C)C(=O)N[C@H]1C(=O)N[C@@H](CC(N)=O)C(=O)N[C@H]2C(=O)N[C@H]3C(=O)N[C@H](C(=O)N[C@H](C(=O)O)c4cc(O)cc(O)c4-c4cc3ccc4O)[C@H](O)c3ccc(c(Cl)c3)Oc3cc2cc(c3O[C@@H]2O[C@H](CO)[C@@H](O)[C@H](O)[C@H]2O[C@H]2C[C@](C)(N)[C@H](O)[C@H](C)O2)Oc2ccc(cc2Cl)[C@H]1O [Van, vancomycin, reference compound]
- MIC [1]: 16 µg/mL (≈ 11 µM)
- MIC [2]: 0.5 µg/mL (≈ 0.345 µM)
- MIC [3]: 2 µg/mL (≈ 1.38 µM)
- MIC [4]: 128 µg/mL (≈ 88.3 µM)
- MIC [5]: 128 µg/mL (≈ 88.3 µM)
- MIC [6]: > 128 µg/mL
- MIC [7]: 1 µg/mL (≈ 0.69 µM)
- MIC [8]: 1 µg/mL (≈ 0.69 µM)
- MIC [9]: 2 µg/mL (≈ 1.38 µM)
- MIC ([10]; Staphylococcus aureus): 2 µg/mL (≈ 1.38 µM)
- MIC [11]: 128 µg/mL (≈ 88.3 µM)
- MIC [12]: 128 µg/mL (≈ 88.3 µM)

- MIC [10, 16]: 0.25 µg/mL (≈ 0.754 µM)
SMILES: O=C(O)c1cn(C2CC2)c2cc(N3CCNCC3)c(F)cc2c1=O [ciprofloxacin, reference compound]
- MBC (S. aureus ATCC4330; Staphylococcus aureus, ATCC 4330 / ATCC 43300, against S. aureus ATCC43300, read-out: MBC): 2 µg/mL (≈ 6.04 µM)
- effect on ROS fluorescence intensity (S. aureus ATCC43300 [13]): little change in fluorescence intensity
- effect on DNA concentration (S. aureus ATCC43300 [14]): changed little

SMILES: CC[C@H](C)[C@H](NC(=O)CN)C(=O)NCC(=O)N[C@@H](C)C(=O)N[C@H](C(=O)N[C@@H](CC(C)C)C(=O)N[C@@H](CCCCN)C(=O)N[C@H](C(=O)N[C@@H](CC(C)C)C(=O)N[C@H](C(=O)N[C@H](C(=O)NCC(=O)N[C@@H](CC(C)C)C(=O)N1CCC[C@H]1C(=O)N[C@@H](C)C(=O)N[C@@H](CC(C)C)C(=O)N[C@H](C(=O)N[C@@H](CO)C(=O)N[C@@H](Cc1c[nH]c2ccccc12)C(=O)N[C@H](C(=O)N[C@@H](CCCCN)C(=O)N[C@@H](CCCNC(=N)N)C(=O)N[C@@H](CCCCN)C(=O)N[C@@H](CCCNC(=N)N)C(=O)N[C@@H](CCC(N)=O)C(=O)N[C@@H](CCC(N)=O)C(N)=O)[C@@H](C)CC)[C@@H](C)CC)[C@@H](C)O)[C@@H](C)O)C(C)C)C(C)C [melittin, reference compound]
- MIC S. a 43300 [10, 16]: 8 µg/mL (≈ 2.81 µM)
- MBC (S. aureus ATCC4330; against S. aureus ATCC43300): 32 µg/mL (≈ 11.2 µM)
- effect on ROS fluorescence intensity (S. aureus ATCC43300 [13]): dose-dependently increase the fluorescence intensity

SMILES: CCn1cc(C(=O)O)c(=O)c2cc(F)c(N3CCNCC3)cc21 [norfloxacin, reference compound]
- fold increase in MIC (S. aureus ATCC43300 [15]): 512 fold
